The source of these data is patent US20260327202A1, “COMPOUND CONTAINING 2-METHYL-2-(3-(PIPERIDIN-3-YL)PHENOXY)-2-METHYLPROPANAMIDE SKELETON” (JIANGSU MINGSHENG JUTAI BIOTECHNOLOGY CO. LTD, priority 2023, published 2026).

One experiment addresses T1, β-catenin (Homo sapiens, UniProt P35222).
T1 sequence (P35222 1-781): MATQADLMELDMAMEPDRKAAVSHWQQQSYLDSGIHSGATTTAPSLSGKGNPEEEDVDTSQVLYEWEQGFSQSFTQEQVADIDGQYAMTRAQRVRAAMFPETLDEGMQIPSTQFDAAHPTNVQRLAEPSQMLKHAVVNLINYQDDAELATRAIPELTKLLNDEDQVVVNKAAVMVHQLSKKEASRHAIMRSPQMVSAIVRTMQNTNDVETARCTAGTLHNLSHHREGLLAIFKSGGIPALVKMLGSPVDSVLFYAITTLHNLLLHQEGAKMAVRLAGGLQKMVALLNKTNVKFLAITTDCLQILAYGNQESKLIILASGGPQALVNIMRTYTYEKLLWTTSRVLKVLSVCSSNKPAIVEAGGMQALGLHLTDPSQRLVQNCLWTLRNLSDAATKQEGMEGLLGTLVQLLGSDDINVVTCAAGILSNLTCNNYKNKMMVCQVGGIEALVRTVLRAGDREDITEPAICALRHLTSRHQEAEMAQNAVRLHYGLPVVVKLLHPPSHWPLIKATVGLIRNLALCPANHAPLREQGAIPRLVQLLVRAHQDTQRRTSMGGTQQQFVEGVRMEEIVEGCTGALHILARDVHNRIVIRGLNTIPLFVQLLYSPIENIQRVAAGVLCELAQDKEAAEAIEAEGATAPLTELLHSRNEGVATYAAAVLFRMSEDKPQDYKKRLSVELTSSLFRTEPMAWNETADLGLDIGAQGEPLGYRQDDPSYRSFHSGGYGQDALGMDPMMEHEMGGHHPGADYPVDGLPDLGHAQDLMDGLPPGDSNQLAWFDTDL
The experiment is described as follows: SRP test (Biacore T200), binding to ligand β-catenin. As to conditions: Biacore T200, CM5 chip with β-catenin, HEPES pH 7.4, 0.1% DMSO, 25 °C. As for the experimental part:
• 1. Experimental settings • 1. The analyte is in powder form. • 2. The temperature is 25 °C • 3. The analysis equipment adopts Biacore T200 instrument. • 2. Sample dilution • 1. Ligand β-catenin diluted with HEPES (pH 7.4), 0.5 mg/mL • 2. The analyte was dissolved in DMSO and diluted with 0.1% DMSO HEPES (pH 7.4). • 3. Experimental process • 1. Operate and start according to the standard of Biacore T200 instrument. • 2. Prepare buffer HEPES (pH 7.4) and 500 ml of deionized water for washing syringes (filtered by […] membrane). • 3. Start installing the chip and install the Cm5 chip according to the standard process. • 4. Prepare to start the formal experiment, the buffer will flush the flow path system inside the entire system at a high flow rate. • 5. Choose the appropriate program according to the sample size. • 6. Start capturing the chip and prepare a sufficient volume of ligands β-catenin, EDC/NHS, and blocking solution. The conjugation procedure was started with a conjugation time of 7 min, a flow rate of […], and a final ligand conjugation of approximately 16000RU. • 7. After the conjugation is completed, the sample detection is started, and the analyte binding time is set to 120 s. • Flow rate of 30 μL/min; The dissociation time was 200 s and the flow rate was 30 μL/min. Regeneration time 30 s, • The flow rate is 30 μL/min. • 8. […]
On the technique in general: SPR reads the build-up and loss of mass on a sensor chip optically.

Another experiment has as its system SW480 cells. The experiment is described as follows: CCK8 assay, SW480 cells. Conditions: CCK-8, SW480 cells, 24 hours incubation at 37 °C, DMEM (2% FBS), OD450-OD600. In kind it is cell-based. The method, then: • 1. SW480 Cell plate • Cells digested, counted, and laid a 96-well plate (flat-bottomed transparent) with 10,000 cells/100 ul DMEM (10% FBS) per well; • 2. Observe the cell status on the next day, and start adding medicine after the cells are intact; • 3. Dilute the compound with DMEM (2% FBS) and dilute it in a gradient at concentrations of 20 μM, 10 μM, 5 μM, 2.5 μM, 1.25 μM, 0.625 μM, 0.3125 μM, 0.15625 μM, 0 μM (equal volume DMSO); • 4. Add 100 μl of the above compounds of different concentrations to each well, and make 2 compound wells for each concentration gradient; Leave 3 blank wells (DMEM 2% FBS culture medium only, no cells); • 5. Incubate at 37 °C for 24 hours; • 6. […] Measure absorbance at 450 nm and absorbance at 600 nm (exclude interference from the reagent base color and the absorbance value of the plate itself); • 9. The final absorbance value is OD450 nm-OD600 nm, and the rejection rate is calculated.
Suppression Rate=[(Ac−As)/(Ac−Ab)]×100% • As: absorbance of the experimental wells (medium containing cells, CCK-8, drug to be tested); • Ac: absorbance of the control wells (medium containing cells, CCK-8, no drug to be tested); • Ab: Absorbance of blank wells (medium without cells and drug to be tested, CCK-8).

A word on the Kd: it is a measure of binding affinity in units of concentration. Higher therefore signals lower affinity. On β-catenin, `CC(C)c1ccc(-c2cccc(S(=O)(=O)N3CCCC(c4cccc(OC(C)(C)C(=O)NCC(=O)N5CCC[C@H]5CN)c4)C3)c2)cc1` (stereo partly shown) [Compound 115-010] came in with a Kd of 284 µM.

At β-catenin, `CC(C)c1ccc(-c2cccc(S(=O)(=O)N3CCCC(c4cccc(OC(C)(C)C(=O)NCC(=O)N5CC[C@@H](CN)C5)c4)C3)c2)cc1` (stereo partly shown) [Compound 115-012] came in with a Kd of 760 µM.

As a reminder, the IC50 is the concentration needed to halve the response being measured. As to `CC(C)c1ccc(-c2cccc(S(=O)(=O)N3CCCC(c4cccc(OC(C)(C)C(=O)NCC(=O)N5CCC[C@H]5CCN)c4)C3)c2)cc1` (stereo partly drawn) [Compound 115-014, N-(2-((S)-2-(2-aminoethyl)pyrrolidin-1-yl)-2-oxyethyl)-2-(3-(1-((4′-isopropyl-[1,1′-Biphenyl]-3-yl)sulfonylpiperidine-3-yl)phenoxy)-2-methylpropionamide)], in the experiment with SW480 cells (Homo sapiens, read-out: SW^10 IC50), the IC50 was 52.9 µM.

On to `CC(C)(Oc1cccc(C2CCCN(C(=O)NCc3ccc(-c4cn[nH]c4)cc3)C2)c1)C(=O)NCC(=O)N1CCCC1CN` (stereo not shown) [Compound 115-020], for which the “SW^10 IC50” value in the experiment on SW480 cells was “Inactive”.
